From patent publication US20220409617A1, “Drug Formulations and Methods of Treatment for Metabolic Disorders” (The Regents of the University of California, priority 2019, published 2022) come the findings set out here.

The subject of assay [1] is 3T3-L1 adipocytes. The experiment in a line: Insulin-stimulated 2-deoxyglucose uptake. The assay is classed as cell-based, mouse. The note with it: 3 h, 893 10 μM, MK-2206 2 μM. The protocol: (§1) 3T3-L1 cells were maintained in DMEM with 10% FBS and 1% penicillin-streptomycin until induced to differentiate. 3T3-L1 pre-adipocytes were differentiated as described in (M. P. Valley, et al., Anal. Biochem. 505: 43-50, 2016, the disclosure of which is incorporated herein by reference) with slight modifications. Briefly, pre-adipocytes were grown to confluence. After 2 d, cells were induced with maintenance media containing 500 μM IBMX (15879, Sigma-Aldrich, St. Louis, Mo.), 1 μM dexamethasone (D4902, Sigma-Aldrich), 5 μg/mL bovine insulin (10516, Sigma-Aldrich), and 5 μM troglitazone (50-115-0786, ApexBio). Media was changed every 2-3 d for 7 d. On day 7 post-induction, media was changed to maintenance media+5 μg/mL bovine insulin. On day 9 post-induction, media was changed to maintenance media. Mature adipocytes were used 12-14 d post-induction for all experiments. LSL-KrasG12D mouse embryonic fibroblasts (MEFs) with and without Cre-mediated deletion of the STOP cassette were obtained from David Tuveson (Cold Spring Harbor Laboratory, Cold Spring Harbor N.Y., USA) in 2000. p53^flox/flox MEFs were derived in house (2015) from C57BL/6 mice using standard techniques and immortalized by transient expression of Cre recombinase and deletion of p53. MEFs were cultured and maintained in DMEM with 10% FBS and 1% penicillin-streptomycin. […]

Assay [2] concerns DRP1. The assay can be described thus: DRP1 recruitment to mitochondria (DRP1/citrate synthase co-localization) and DRP1 western blot. The assay is classed as cell-based, mouse. The note with it: MEFs; 893 5 μM or YM201636 800 nM 3 h, then palmitate 250 μM 3 h. The protocol: Mature adipocytes were serum starved for 16 h then treated with vehicle, ceramide (50 or 100 μM), or sphingolipid-like compound 893 (5 or 10 μM) in serum-free media supplemented with 0.2% fatty-acid free BSA for 3 h after which 100 nM insulin was added for 15 min. To determine total DRP1 protein levels, 100,000 MEFs were seeded into a 6-well plate for 16 h, pre-treated for 3 h with vehicle or sphingolipid-like compound 893 (5 μM) followed by a 3 h incubation in 1% BSA+ethanol or BSA-palmitate (250 μM). Cells were washed once with cold PBS, then lysed in cold RIPA buffer (140 mM NaCl, 10 mM Tris pH 8.0, 1% Triton X-100, 0.1% SDS, 1% sodium deoxycholate) with cOmplete™ protease inhibitor (Cat no. 11697498001, Millipore Sigma, St. Louis, Mo.) and phosSTOP™ phosphatase inhibitor (Cat no. 4906837001, Millipore Sigma). Samples were incubated on ice for 10 min and insoluble material removed by centrifugation (9000×g for 10 min at 4° C.). Protein content was quantified in the supernatant using the Pierce™ BCA Protein Assay Kit (Thermo-Fisher Scientific, Waltham, Mass.). Equal amounts of protein were prepared in NuPAGE® LDS Sample Buffer (NP0007, Invitrogen) containing 50 mM DTT, and heated at 70° C. for 10 min. Proteins were resolved on a NuPAGE® 4-12% Bis-Tris protein gel (NP0336, Invitrogen, Carlsbad, Calif.) and subsequently transferred to a nitrocellulose membrane. Membranes were blocked in 5% BSA in TBST for 1 h, then probed with primary antibodies overnight at 4° C. […] Band intensity was quantified using Image Studio Lite V5.2 software (Li-COR).
MEFs were washed twice with PBS and fixed with 4% paraformaldehyde for 10 min at RT. […] NADH/NADPH autofluorescence was detected with 740 nm excitation and 450±50 nm detectors using a Mai Tai two-photon laser. Fluorescence microscopy was performed on a Zeiss LSM 780 confocal using a 63× oil objective with a […] numerical aperture (NA) or using a Nikon TE2000-S inverted epifluorescence microscope with a 100× oil objective (1.3 NA) and a Photometrics CoolSNAP ES2 monochrome CCD camera. […]
(Immunoblotting shows a protein as a band on a membrane.)

Assay [3] relates to AKT. The assay can be described thus: Insulin-stimulated AKT activation, western blot. In kind it is cell-based, mouse. Conditions: 3T3-L1 adipocytes; 3 h pre-treatment, C2-ceramide 50 or 100 μM, 893 5 or 10 μM; insulin 100 nM 15 min. The protocol:
as §1, with “experiments.” for “experiments. LSL-KrasG12D mouse embryonic fibroblasts (MEFs) with and without Cre-mediated deletion of the STOP cassette were obtained from David Tuveson (Cold Spring Harbor Laboratory, Cold Spring Harbor N.Y., USA) in 2000. p53^flox/flox MEFs were derived in house (2015) from C57BL/6 mice using standard techniques and immortalized by transient expression of Cre recombinase and deletion of p53. MEFs were cultured and maintained in DMEM with 10% FBS and 1% penicillin-streptomycin.”
Mature adipocytes were serum starved for 16 h then treated with vehicle, ceramide (50 or 100 μM), or sphingolipid-like compound 893 (5 or 10 μM) in serum-free media supplemented with 0.2% fatty-acid free BSA for 3 h after which 100 nM insulin was added for 15 min. […] Protein content was quantified in the supernatant using the Pierce™ BCA Protein Assay Kit (Thermo-Fisher Scientific, Waltham, Mass.). […]

Assay [4] can be described thus: Home-cage feeding study with suboptimal leptin (leptin sensitization). In kind it is in vivo, mouse. Conditions: lean chow-fed 18 week old mice; leptin 2 mg/kg i.p. or 893 120 mg/kg by gavage. An excerpt:
Leptin is secreted by adipocytes in proportion to their triglyceride content, signaling to the CNS when peripheral energy stores are full and food consumption should decrease. In HFD-fed mice, chronic increases in adiposity lead to elevations in circulating leptin with no accompanying decrease in food intake, a state that has been termed leptin-resistant. Reducing leptin levels in the blood restores leptin signaling in the hypothalamus (S. Zhao, et al., 2019, cited supra). Thus, the sphingolipid-like compound 893 should function as a leptin-sensitizing agent. To test this model, 18 week old lean, male C57BL/6J mice were treated intraperitoneally with a suboptimal dose of recombinant leptin at ZT8.5 and food intake and body weight measured over the next 18 h. […] In summary, the reduction in food intake in sphingolipid-like compound 893-treated mice is consistent with the reversal of mitochondrial fragmentation in the hypothalamus and likely due in part to the re-sensitization of anorexigenic POMG neurons to leptin when plasma leptin levels are decreased.
Mice were singly housed and allowed to acclimate for 72 h before food intake was monitored. Food consumption was determined by monitoring the weight of food in the hopper. Initial food and body weight measurements were taken at ZT9 and final measurements were taken 16 h later to capture the active period where most consumption occurred. Home cage feeding studies were performed with C57BL/6J mice maintained on a HFD for 24 weeks (33 weeks of age), or ob/ob mice at 8 weeks of age. Mice received vehicle or 120 mg/kg sphingolipid-like compound 893 by gavage at ZT8.5. For experiments involving leptin, 18 week old, SD fed (16% kcal from fat, 2020×, Envigo) C57BL/6J mice received vehicle or 120 mg/kg sphingolipid-like compound 893 by gavage at ZT8.5. […] One ob/ob mouse died during Echo MRI for unknown reasons after 6 d of treatment with sphingolipid-like compound 893; data from this mouse was analyzed prior to death.

Take `NC1(c2ccc(-c3nc4ccn5c(=O)[nH]nc5c4cc3-c3ccccc3)cc2)CCC1` [MK-2206, reference compound]: the Insulin-stimulated glucose uptake entry in assay [1] is “impeded insulin-stimulated glucose uptake in adipocytes”.

With `Nc1ccc(C(=O)Nc2cccc(-c3nc(N4CCOCC4)c4oc5ncccc5c4n3)c2)cn1` [YM201636, reference compound], the “DRP1 recruitment to mitochondria in response to palmitate” value in assay [2] was “prevented DRP1 recruitment”.

For the molecule `CCCCCCCCCCCCC/C=C/[C@@H](O)[C@H](CO)NC(C)=O` [ceramide, C2-ceramide, reference compound], in assay [3], the “Insulin-stimulated AKT activation” value is “interfered with insulin-stimulated AKT activation”.

B1: leptin: recombinant mouse leptin (498-OB, R&D Systems) (protein, UniProt P41160 22-167, looked up)
Leptin: VPIQKVQDDTKTLIKTIVTRINDISHTQSVSAKQRVTGLDFIPGLHPILSLSKMDQTLAVYQQVLTSLPSQNVLQIANDLENLRDLLHLLAFSKSCSLPQTSGLQKPESLDGVLEASLYSTEVVALSRLQGSLQDILQQLDVSPEC
Consider B1, for which the “Food intake and body weight over 18 h, single agent” value in assay [4] is “not sufficient to decrease food intake or body weight”.
